The values below come from patent US20110165601A1, “ASSAY SYSTEM” (THE UNIVERSITY COURT OF THE UNIVERSITY GLASGOW, priority 2006, published 2011).

The target of assay [1] is T1, ryanodine receptor (Oryctolagus cuniculus, UniProt P30957).
T1 construct: The atria were removed and discarded whereas the right and left ventricle was kept for experiments; endogenous in cells; host or cells: isolated rabbit ventricular cardiomyocytes, beta-escin permeabilised, frozen and thawed
Put plainly: SR Ca2+ release assay (Ca2+ leak from permeabilised cell aggregates). The conditions noted are these: after 40 mM caffeine, FIG. 2. In kind it is cell-based, rabbit.
Description: Ca^2+ uptake is stimulated by addition of an aliquot of Ca^2+. SERCA inhibition is induced by thapsigargin (5 uM).
The cell aggregate preparation is defrosted in 9× volumes of S2 with the addition of 2-3 aliquots of 100 μM CaCl2. The preparation is then aliquoted into the high format wells (96 or 384 well). […] The slow progressive increase in Ca^2+ concentration within the bath reflects Ca^2+ loss from the SR both via the ryanodine receptor and via independent leak pathways. […] As with the assay system above, two options for measurements are possible (i) follow the timecourse of the Ca^2+ release profile in detail by measuring every 1-2 s for 10 mins (ii) measuring the Ca^2+ concentration at a set time (e.g. 10 mins) after initiation of the reaction. Compounds that stimulate the SR Ca^2+ leak will cause the increase of Ca^2+ concentration to occur faster than control (vehicle). Conversely compounds that inhibit the SR Ca^2+ leak will slow the increase of Ca^2+ concentration.

Assay [2] addresses T2, SR Ca2+ ATPase (SERCA) (Oryctolagus cuniculus, UniProt P20647).
T2 construct: The atria were removed and discarded whereas the right and left ventricle was kept for experiments; endogenous in cells; host or cells: isolated rabbit ventricular cardiomyocytes, beta-escin permeabilised, frozen and thawed
Put plainly: SR uptake assay in permeabilised cell preparations. It counts as cell-based, rabbit. The conditions noted are these: FIG. 1C.
Description: As indicated above the figure, Ca^2+ was added to increase the [Ca^2+] within the aggregate to ˜1.5 μM. No Ca^2+ uptake occurs due to the absence of Mg^2+ (and therefore MgATP). Addition of Me starts the reaction. The initial increase of [Ca^2+] is caused by displacement of Ca^2+ from ATP.
Aliquots of cells are defrosted gradually with the addition of 9 volumes of S1 solution. This was followed by addition of CaCl2 to increase the free [Ca^2+] to ˜1.5 μM (˜100 μM total Ca^2+). The mixture can then be distributed into the 96 or high format arrays. Incubation of the preparation with the compound of interest can occur for 15-20 mins and the SR uptake reaction began by addition of 5.5 mM MgCl2 (with stirring). This provides the substrate (MgATP) to allow SR uptake of Ca^2+. There are two options for measurement: (i) follow the time course of the Ca^2+ uptake profile in detail by measuring every 1-2 s for up to 10 mins (ii) measuring the Ca^2+ concentration at a set time (e.g. 10 mins) after initiation of the reaction. […] These effects can be monitored in detail (option (i)—see FIG. 1 and description thereof for an example) or by simply measuring Fluo-3 fluorescence at one time point (option (ii)).

For assay [3], the system named is myocytes. Put plainly: Ca2+-contraction assay (rod count by haemocytometer). In kind it is cell-based, rabbit. The text has this:
(§1) The following description illustrates two methods which were used to test permeabilisation of rabbit myocytes by a batch of beta-escin, and to compare two different commercial batches of saponin.
(§2) The haemocytometer method of cell counting was used to count the number of non-permeable myocytes before and after application of the permeabilising agent (either saponin or β-Escin). Freshly dissociated cardiac muscle cells were obtained in a solution of low calcium. These were filtered and transferred into two 13.5 ml test tubes. Each was centrifuged for approximately 12 seconds at 5 g and the supernatant was discarded. Approximately 4.5 ml of EGTA solution was used to re-suspend the pellet in each tube. The contents of both were combined to form the stock suspension.
Physiologically, myofilaments are activated by a rapid increase in the cytosolic Ca^2+ concentration from 0.1 μM to approximately 2 μM which occurs mainly due to Ca^2+ release from the SR (Levick, 2000). The Ca^2+-contraction assay used in this investigation relies upon the fact that cells with permeabilised membranes allow free access of Ca^2+ to the cytosol when exposed to high extracellular Ca^2+ concentrations. This activates the myofilaments of the cell causing it to contract into a ball. Non-permeabilised myocytes retain their characteristic rod shape. The effects of permeabilising agents on the cell population were quantified by counting the proportion of rod-shaped cells.
On each run utilising the Ca^2+-contraction assay, sixteen 13.5 ml test tubes were obtained. Eight of these were labelled “EGTA” whilst the remaining eight were labelled “CaEGTA”. Within both sets of eight, individual tubes were labelled control 1, control 2, 0.01, 0.1, 1, 10, 100 and 1000.
The cell stock suspension was agitated to ensure uniform distribution of cells and exactly 1 ml was pipetted into each tube labelled “EGTA”. These tubes were then transferred to the fridge to prevent degradation of the cells.
Each tube was put through the following protocol in turn. The required volume of permeabilising agent was added (see Table 2) and a stopclock was started. During the two minute incubation time, exactly 0.5 mls of the contents of the “EGTA” tube was withdrawn using a pipette and transferred to the corresponding “CaEGTA” tube.
Once the incubation time had elapsed the tubes were centrifuged for approximately 12 seconds at 5 g and the supernatant was withdrawn. The “EGTA” pellet was re-suspended in 0.5 mls of EGTA solution and the “CaEGTA” pellet in 0.5 mls of CeEGTA solution. Both tubes were agitated and the cell density determined by haemocytometer. The protocol was followed for all concentrations under investigation; for the two controls no permeabilising agent was added and thus no incubation step was required.
The effect of exposing myocytes to exceedingly high concentrations of permeabilising agent ([…]) was investigated for both β-Escin and saponin. The protocol followed was the same as the Ca^2+-contraction assay protocol (described above). 100 μl of the 100 mg/ml stock was added to the 1 ml suspension volume to achieve the required concentration (see Table 2). A control plus a low concentration of agent (1 μg/ml) were also studied to validate results.
The concentrations investigated were 1, 10, 100 and 1000 μg/ml for each saponin plus two controls. The experimental protocol followed was the same as for the Ca^2+-contraction assay method above.
(§3) Graphs were plotted and non-linear logistic curves were fitted using least squares technique by the Microcal™ Origin™ package (version 5.0, Microcal Software Inc.). ED50 values and their associated errors were also estimated using this software. Analysis of variance (ANOVA) using Tukey's post-test comparison was used to verify significance between ED50 values (GraphPad InStat™, GraphPad Software, V2.05a).

For assay [4], the system named is cardiac myocytes. Put plainly: Permeabilisation of a sample of cardiac myocytes. It counts as cell-based. The conditions noted are these: at 1 mg/ml.
In assay [5] the test system is myocytes. Put plainly: Trypan blue assay (access of dye into myocytes). It counts as cell-based, rabbit.
Description: as §1, §2
Access of the vital dye Trypan blue (MW: 950 approx.) into myocytes was used to evaluate permeabilisation by Saponin (Calbiochem brand) or β-escin. Permeabilised myocytes were identified by positive staining (blue colour) of the cell contents. Cells with intact membranes excluded the dye and it was this population that was counted.
For each run utilising the trypan blue assay, eight 13.5 ml test tubes were obtained. Each was labelled control 1, control 2, 0.1, 1, 10, 100, 1000 or 10000.
The cell stock suspension was agitated to ensure uniform distribution of cells and exactly 1 ml was pipetted into each tube. These were then transferred to the fridge to prevent degradation of the cells. Each tube was put through the following protocol in turn. The required volume of permeabilising agent was added (see Table 2) and a stopclock was started.
Once the incubation time had elapsed the tube was centrifuged for approximately 12 seconds at 5 g and the supernatant was withdrawn. The pellet was re-suspended in 0.5 mls of EGTA solution and 0.5 mls of 0.5% Trypan blue (BDH Laboratory Supplies, Poole, England) in 5 mM EGTA, which had been previously gently heated to ensure that the dye was dissolved. The tube was agitated and cell density determined by hamocytometer counting.
The protocol was followed for all concentrations under investigation; for the two controls no permeabilising agent was added and thus no incubation step was required.
as §3

T2 sequence (P20647 1-997 isoform P20647-2): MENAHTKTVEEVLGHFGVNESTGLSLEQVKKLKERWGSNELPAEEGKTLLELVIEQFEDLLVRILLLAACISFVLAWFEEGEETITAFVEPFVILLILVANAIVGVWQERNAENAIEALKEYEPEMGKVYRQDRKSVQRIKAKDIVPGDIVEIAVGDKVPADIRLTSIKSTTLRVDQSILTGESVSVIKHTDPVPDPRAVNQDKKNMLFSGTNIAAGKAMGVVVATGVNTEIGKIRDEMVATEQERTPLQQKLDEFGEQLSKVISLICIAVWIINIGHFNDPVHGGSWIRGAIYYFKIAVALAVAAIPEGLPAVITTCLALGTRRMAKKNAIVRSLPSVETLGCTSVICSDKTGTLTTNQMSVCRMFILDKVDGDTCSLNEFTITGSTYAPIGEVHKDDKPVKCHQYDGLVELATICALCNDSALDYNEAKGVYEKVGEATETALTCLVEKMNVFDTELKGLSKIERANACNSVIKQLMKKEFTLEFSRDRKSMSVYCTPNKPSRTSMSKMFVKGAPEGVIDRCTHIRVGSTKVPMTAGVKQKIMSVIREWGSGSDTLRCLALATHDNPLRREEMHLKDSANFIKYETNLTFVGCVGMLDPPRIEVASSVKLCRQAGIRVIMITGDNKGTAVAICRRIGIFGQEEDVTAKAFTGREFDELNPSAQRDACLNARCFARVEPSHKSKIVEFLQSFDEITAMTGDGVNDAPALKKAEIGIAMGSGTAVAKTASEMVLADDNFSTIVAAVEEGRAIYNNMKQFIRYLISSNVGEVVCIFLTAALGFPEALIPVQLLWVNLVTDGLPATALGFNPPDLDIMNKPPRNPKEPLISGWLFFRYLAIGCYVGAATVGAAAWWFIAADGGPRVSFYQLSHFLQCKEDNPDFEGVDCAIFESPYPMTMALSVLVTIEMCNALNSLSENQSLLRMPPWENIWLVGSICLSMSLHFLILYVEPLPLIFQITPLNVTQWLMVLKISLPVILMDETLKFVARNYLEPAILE

Regarding `N.N.N.N.N.N.N.N.N.N.N.N.N.N.[Cl-].[Cl-].[Cl-].[Cl-].[Cl-].[Cl-].[O-2].[O-2].[Ru+3].[Ru+3].[Ru+4]` [ruthenium red], the “effect on caffeine-stimulated Ca2+ leak from SR” value in assay [1] was “blocked”.

With `C/C=C(/C)C(=O)O[C@H]1C(C)=C2[C@H]([C@@H]1OC(=O)CCCCCCC)[C@@](C)(OC(C)=O)C[C@H](OC(=O)CCC)[C@@]1(O)[C@H]2OC(=O)[C@@]1(C)O` [thapsigargin], the “effect on SERCA” value in assay [2] is listed as “inhibition”.

In the case of β-escin, the “concentration at which permeabilisation (decrease in rod count in 5 mM Ca2+ EGTA) began” value in assay [3] (Ca2+-contraction assay) was determined as 10 µg/mL. Further, in assay [3] (Ca2+-contraction assay), the “concentration range over which permeabilisation was produced” value lay in the range of 1 to 10000 µg/mL. The minimum effective concentration in assay [3] (Ca2+-contraction assay, 5 mM Ca2+ EGTA) worked out at 100 µg/mL; in assay [5] (trypan blue assay), 100 µg/mL. In addition, the “proportion of cell population hyperpermeable / permeabilised” value in assay [3] (at 100 μg/ml), in assay [3] (at 1000 μg/ml) and in assay [3] (at 10000 μg/ml) was “Approximately 100%” throughout. Moreover, in assay [4], the “proportion of cardiac myocytes permeabilised” value is reported as “about 10%”. The “concentration from which trypan blue began to enter the myocytes” value in assay [5] lay within 1 to 10 µg/mL. In addition, the “mean rod count excluding dye” value is on record as “approximately 90%” in assay [5] (at 0.1 μg/ml) and “approximately 110%” in assay [5] (at 1 μg/ml). Moreover, the “decrease of mean rod count, of the control value” in assay [5] (at 10 μg/ml) was “approximately 35%”. Besides, the “proportion of control population permeable to trypan blue” value in assay [5] (at 100 μg/ml), in assay [5] (at 1000 μg/ml) and in assay [5] (at 10000 μg/ml) was “Approximately 100%” throughout.
